Laboratory results: article PMC7562955 (Nature Communications, 2020)
Like-named read-outs stand apart in the source and are kept apart here.

How the values were obtained:
TLR7 [1] = molecular target: T1, TLR7 (Homo sapiens, UniProt Q9NYK1); assay: Human TLR7 reporter gene inhibitory activity assay (NF-κB/SEAP HEK293); type: cell-based; parameters: host or cells: HEK293 (TLR7/NF-κB/SEAPorter); settings: for IC50 / human TLR7 activity, reporter signal: R848 200 nM
T1 sequence (Q9NYK1 27-1049): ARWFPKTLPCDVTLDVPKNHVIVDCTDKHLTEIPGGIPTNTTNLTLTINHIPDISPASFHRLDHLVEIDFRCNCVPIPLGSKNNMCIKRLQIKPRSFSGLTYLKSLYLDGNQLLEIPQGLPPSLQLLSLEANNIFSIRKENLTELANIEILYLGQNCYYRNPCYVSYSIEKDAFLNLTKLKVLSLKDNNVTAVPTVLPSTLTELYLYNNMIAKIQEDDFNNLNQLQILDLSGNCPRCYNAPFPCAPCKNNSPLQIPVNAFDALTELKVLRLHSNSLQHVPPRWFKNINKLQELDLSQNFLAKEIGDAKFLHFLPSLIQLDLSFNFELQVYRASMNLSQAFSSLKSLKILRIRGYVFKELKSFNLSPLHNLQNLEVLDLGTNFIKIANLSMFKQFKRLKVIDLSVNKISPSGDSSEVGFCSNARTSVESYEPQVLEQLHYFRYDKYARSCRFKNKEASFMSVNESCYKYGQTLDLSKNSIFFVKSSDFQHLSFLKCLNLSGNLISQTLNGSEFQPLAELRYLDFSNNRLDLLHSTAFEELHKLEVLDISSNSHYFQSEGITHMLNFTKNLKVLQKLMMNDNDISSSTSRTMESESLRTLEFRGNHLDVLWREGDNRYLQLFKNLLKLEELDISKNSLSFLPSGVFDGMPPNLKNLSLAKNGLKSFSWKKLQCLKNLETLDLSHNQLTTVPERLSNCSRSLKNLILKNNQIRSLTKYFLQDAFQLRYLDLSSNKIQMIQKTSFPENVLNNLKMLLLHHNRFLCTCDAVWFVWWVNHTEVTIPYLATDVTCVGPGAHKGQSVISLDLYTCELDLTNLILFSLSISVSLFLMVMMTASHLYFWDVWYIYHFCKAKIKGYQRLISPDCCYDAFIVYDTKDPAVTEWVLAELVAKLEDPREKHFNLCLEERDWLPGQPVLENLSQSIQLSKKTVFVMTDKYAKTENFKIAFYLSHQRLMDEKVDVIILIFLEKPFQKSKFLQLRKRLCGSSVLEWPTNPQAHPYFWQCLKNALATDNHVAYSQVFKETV
Method: Compounds were dissolved in dimethyl sulfoxide. Before stimulation with compound, Human TLR7 reporter cell line (TLR7/NF-κB/SEAPorter^TM HEK293 cell, Novus Biological, USA), human TLR8 reporter cell line (TLR8/NF-κB/SEAPorter^TM HEK293 cell, Novus Biological), and human TLR9 reporter cell line (TLR9/NF-κB/SEAPorter^TM HEK293 cell, Novus Biological) were seeded in 96-well microtiter plate (AGC techno glass, Japan) at 5 × 10^4 cells/well in DMEM (GIBCO, United Kingdam) with 10 % fetal bovine serum (GIBCO), and 10 ug/ml Blastcidin S HCl (GIBCO) and incubated at 37 °C in 5% CO2. The plates were incubated over-night and then stimulated with various concentrations of compound. […] After 30 min, R848 (human TLR7/8 ligand, synthesized at Sumitomo Dainippon Pharma, Japan) or CpG2006 (human TLR9 ligand, Hokkaido System Science Co., Ltd., Japan) added to each well, wherein each final concentration were adjusted to 200 nM R848 (human TLR7), 30 μM R848 (human TLR8), or 500 nM CpG2006 (human TLR9). The plates were then incubated an additional 20 ± 1 h at 37 °C in 5% CO2 and then the secreted embryonic alkaline phosphatase (SEAP) activity was measured as activation of human TLR7, 8, and 9. The SEAP activity was evaluated as follows: pNPP (Invitrogen, USA) was added to the incubated sample (50 μl/well); after 15 min, 4 M sodium hydroxide solution (nacalai tesque, Japan) was added thereto (50 μl/well) to quench the reaction; and the absorbance of each sample was measured at 405 nm with microplate reader SpectraMax M4 (Molecular Devices, USA).

TLR7 [2] = molecular target: T1, TLR7; assay: Human TLR7 reporter gene agonistic activity assay; type: cell-based; parameters: host or cells: HEK293 (TLR7/NF-κB/SEAPorter)
Method: Compounds were dissolved in dimethyl sulfoxide. Before stimulation with compound, Human TLR7 reporter cell line (Novus Biological) was seeded in 96-well microtiter plate (AGC techno glass) at 5 × 10^4 cells/well in DMEM (GIBCO) with 10% fetal bovine serum (GIBCO), and 10 ug/ml Blastcidin S HCl (GIBCO) and incubated at 37 °C in 5% CO2. The plates were incubated over-night and then stimulated with various concentrations of compound and R848. The plates were then incubated an additional 20 ± 1 h at 37 °C in 5% CO2 and then the secreted embryonic alkaline phosphatase (SEAP) activity was measured as activation of human TLR7. The SEAP activity was evaluated as follows: pNPP (Invitrogen, USA) was added to the incubated sample (50 μl/well); after 15 min, 4 M sodium hydroxide solution (nacalai tesque, Japan) was added thereto (50 μl/well) to quench the reaction; and the absorbance of each sample was measured at 405 nm with microplate reader SpectraMax M4 (Molecular Devices, USA).

[3] = read-out: TLR7 inhibitory activity IC50

Row | Compound | human TLR7 activity, reporter signal (TLR7 [1]; compound 0.0001 nM (as headed)) | human TLR7 activity, reporter signal (TLR7 [1]; compound 0.001 nM (as headed)) | human TLR7 activity, reporter signal (TLR7 [1]; compound 0.003 nM (as headed)) | human TLR7 activity, reporter signal (TLR7 [1]; compound 0.01 nM (as headed)) | human TLR7 activity, reporter signal (TLR7 [1]; compound 0.03 nM (as headed)) | human TLR7 activity, reporter signal (TLR7 [1]; compound 0.1 nM (as headed)) | human TLR7 activity, reporter signal (TLR7 [1]; compound 0.3 nM (as headed)) | human TLR7 activity, reporter signal (TLR7 [1]; compound 1 nM (as headed)) | human TLR7 activity, reporter signal (TLR7 [1]; compound 3 nM (as headed)) | human TLR7 activity, reporter signal (TLR7 [1]; compound 10 nM (as headed)) | human TLR7 activity, reporter signal (TLR7 [1]; compound 30 nM (as headed)) | human TLR7 activity, reporter signal (TLR7 [1]; compound 100 nM (as headed)) | activation of human TLR7, reporter signal (TLR7 [2]; compound 0.001 nM (as headed)) | activation of human TLR7, reporter signal (TLR7 [2]; compound 0.003 nM (as headed)) | activation of human TLR7, reporter signal (TLR7 [2]; compound 0.01 nM (as headed)) | activation of human TLR7, reporter signal (TLR7 [2]; compound 0.03 nM (as headed)) | activation of human TLR7, reporter signal (TLR7 [2]; compound 0.1 nM (as headed)) | activation of human TLR7, reporter signal (TLR7 [2]; compound 0.3 nM (as headed)) | activation of human TLR7, reporter signal (TLR7 [2]; compound 1 nM (as headed)) | activation of human TLR7, reporter signal (TLR7 [2]; compound 3 nM (as headed)) | further results
1 | CCCCOc1nc(N)c2nc(-c3cccnc3)n(Cc3ccccc3)c2n1 [Cpd-5] | 2.067 | 1.898 | 1.879 | 1.8207 | 1.853 | 1.8291 | 1.986 | 1.7924 | 1.5762 | 1.162 | 0.6856 | 0.7605 | -0.0519 | -0.05305 | -0.08885 | -0.06455 | -0.0507 | -0.02125 | -0.05725 | -0.0655 | IC50 (TLR7 [1]; read-out: TLR7 inhibitory potency IC50): 5000 nM; activation of TLR7 (TLR7 [2]): without causing any inhibition of either TLR8 or TLR9 and activation of TLR7; activation of human TLR7, reporter signal (TLR7 [2]; compound 10 nM (as headed)): -0.0852; activation of human TLR7, reporter signal (TLR7 [2]; compound 30 nM (as headed)): -0.0846; activation of human TLR7, reporter signal (TLR7 [2]; compound 100 nM (as headed)): -0.0973
2 | CCOc1nc(N)c2nc(-c3cncc(F)c3)n(Cc3ccc(CN4C[C@@H]5C[C@H]4CN5C)cc3)c2n1 [Cpd-6] | 1.983 | 1.907 | 1.643 | 1.354 | 0.8446 | 0.3393 | 0.1771 | 0.006275 | -0.01137 | -0.02343 | -0.03198 | -0.04843 | -0.07495 | -0.076 | -0.1139 | -0.0956 | -0.074 | -0.01435 | -0.0641 | -0.07475 | selectivity for TLR7 over TLR8 and TLR9 (TLR7 [1]): high TLR7 selectivity; IC50 (TLR7 [1]; [3]): 25 nM; activation of human TLR7, reporter signal (TLR7 [2]; compound 10 nM (as headed)): -0.1166; activation of human TLR7, reporter signal (TLR7 [2]; compound 30 nM (as headed)): -0.1098; activation of human TLR7, reporter signal (TLR7 [2]; compound 100 nM (as headed)): -0.12
3 | CCOc1nc(C)c2nc(-c3cncc(F)c3)n(Cc3ccc(CN4C[C@@H]5C[C@H]4CN5C)cc3)c2n1 [Cpd-7] | 1.983 | 1.718 | 1.528 | 1.179 | 0.5917 | 0.1271 | 0.01692 | -0.02107 | -0.03277 | -0.02908 | -0.03703 | -0.01692 | -0.0428 | -0.04595 | -0.1002 | -0.06165 | -0.0434 | -0.02775 | -0.0578 | -0.0693 | selectivity for TLR7 over TLR8 and TLR9 (TLR7 [1]): high TLR7 selectivity; IC50 (TLR7 [1]; [3]): 15 nM; activation of human TLR7, reporter signal (TLR7 [2]; compound 10 nM (as headed)): -0.1036; activation of human TLR7, reporter signal (TLR7 [2]; compound 30 nM (as headed)): -0.0961; activation of human TLR7, reporter signal (TLR7 [2]; compound 100 nM (as headed)): -0.09835
4 | CCN(CCO)CCCC(C)Nc1ccnc2cc(Cl)ccc12 (stereo not shown) [HCQ, hydroxychloroquine, reference compound] | 1.977 | – | – | 1.7427 | 1.684 | 1.7194 | 1.681 | 1.5856 | 1.338 | 1.109 | 0.2449 | 0.0133 | – | – | – | – | – | – | – | – | –
